The source of these data is ChEMBL document CHEMBL4385604, “Identification of Pyrrolo[2,3- d]pyrimidine-Based Derivatives as Potent and Orally Effective Fms-like Tyrosine Receptor Kinase 3 (FLT3) Inhibitors for Treating Acute Myelogenous Leukemia” (J Med Chem, 2019).

pIC50: −log10 of the molar value.

As usually defined, the pIC50 is −log10 of the IC50, conventionally taken in molar units.

In experiment [1] the target is T1, Receptor-type tyrosine-protein kinase FLT3 (Homo sapiens, UniProt P36888).
T1 sequence (P36888 whole entry): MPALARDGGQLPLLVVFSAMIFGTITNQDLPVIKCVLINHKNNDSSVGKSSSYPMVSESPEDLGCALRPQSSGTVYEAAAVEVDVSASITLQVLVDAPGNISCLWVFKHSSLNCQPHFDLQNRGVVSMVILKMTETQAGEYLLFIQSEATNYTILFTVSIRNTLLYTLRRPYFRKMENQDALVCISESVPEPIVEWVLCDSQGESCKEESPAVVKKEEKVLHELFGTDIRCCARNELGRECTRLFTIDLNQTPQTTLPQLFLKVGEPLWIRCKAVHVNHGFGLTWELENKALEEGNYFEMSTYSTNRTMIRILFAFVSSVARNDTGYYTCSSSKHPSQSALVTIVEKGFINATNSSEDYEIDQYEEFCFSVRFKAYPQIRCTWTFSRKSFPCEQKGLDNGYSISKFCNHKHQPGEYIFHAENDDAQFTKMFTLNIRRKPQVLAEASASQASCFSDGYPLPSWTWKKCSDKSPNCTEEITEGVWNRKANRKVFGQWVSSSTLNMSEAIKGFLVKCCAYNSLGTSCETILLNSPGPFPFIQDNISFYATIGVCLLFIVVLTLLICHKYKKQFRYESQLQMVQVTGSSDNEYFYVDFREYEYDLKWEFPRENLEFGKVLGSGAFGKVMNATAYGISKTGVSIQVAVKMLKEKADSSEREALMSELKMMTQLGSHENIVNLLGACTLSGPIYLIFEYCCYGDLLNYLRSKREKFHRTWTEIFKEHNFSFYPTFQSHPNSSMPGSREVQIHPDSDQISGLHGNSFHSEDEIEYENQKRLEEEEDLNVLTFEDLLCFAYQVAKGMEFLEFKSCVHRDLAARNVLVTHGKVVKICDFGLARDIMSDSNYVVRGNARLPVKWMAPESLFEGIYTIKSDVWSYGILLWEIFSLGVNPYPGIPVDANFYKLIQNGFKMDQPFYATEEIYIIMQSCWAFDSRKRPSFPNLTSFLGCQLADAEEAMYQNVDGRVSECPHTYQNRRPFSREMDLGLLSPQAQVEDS

Another experiment deals with RS4-11. The experiment can be described thus: Antiproliferative activity against human RS4:11 cells harboring wild-type FLT3 measured after 72 hrs by MTT assay. Type of experiment: functional, cell-based. The note with it: RS4-11, 72 h.
The next experiment deals with HL-60. As to the kind of experiment: Antiproliferative activity against human HL60 cells harboring wild-type FLT3 measured after 72 hrs by MTT assay. Type of experiment: functional, cell-based. The conditions noted are these: HL-60, 72 h.
In a further experiment the test system is MV4-11. As to the kind of experiment: cells. The conditions noted are these: Homo sapiens, MV4-11, 72 h.
For another experiment, the system named is MOLM-13. The experiment can be described thus: cells. The conditions noted are these: Homo sapiens, MOLM-13, 72 h.
In experiment [2] the test system is BaF3. The experiment can be described thus: cells. The note with it: Mus musculus, BaF3, 72 h.
Description: Antiproliferative activity against mouse BAF3 cells harboring FLT3-ITD mutant measured after 72 hrs by MTT assay
Experiment [3] relates to BaF3. As to the kind of experiment: cells. The note with it: Mus musculus, BaF3, 72 h. This is another data set of the same source.
Description: Antiproliferative activity against mouse BAF3 cells harboring FLT3-ITD-F691L mutant measured after 72 hrs by MTT assay
In experiment [4] the test system is BaF3. As to the kind of experiment: cells. The note with it: Mus musculus, BaF3, 72 h. This is another data set of the same source.
Description: Antiproliferative activity against mouse BAF3 cells harboring FLT3-ITD-D835V mutant measured after 72 hrs by MTT assay

Description for MOLM-13: Antiproliferative activity against human MOLM13 cells harboring FLT3-ITD mutant measured after 72 hrs by MTT assay
Description for MV4-11: Antiproliferative activity against human MV4-11 cells harboring FLT3-ITD mutant measured after 72 hrs by MTT assay

As to `C#CCn1cc(-c2ccc(NC(=O)Nc3cc(C(C)(C)C)on3)c(F)c2)c2c(N)ncnc21`, the pIC50 is 7.34 in experiment [1]; under 6.00 in the experiment with RS4-11; under 6.00 in the experiment on HL-60; 9.36 with MV4-11; 9.41 in the experiment with MOLM-13; 8.61 with BaF3 [2]. Also, the negative logarithm of the IC50 (pIC50) in the experiment on BaF3 [3] was 7.79; in the experiment on BaF3 [4] it was 6.99.

Take `CC(C)(C)c1cc(NC(=O)Nc2ccc(-c3cn(CC#N)c4ncnc(N)c34)cc2F)no1`: the negative-log IC50 (pIC50) in experiment [1] is 7.72; in the experiment on RS4-11 it was under 6.00; with HL-60, under 6.00; in the experiment on MV4-11 it was 9.37; in the experiment on MOLM-13 it was 9.14; with BaF3 [2], 8.90. For the same molecule, the pIC50 in the experiment with BaF3 [3] was 8.01; in the experiment on BaF3 [4], 7.06.

Regarding `CC(C)(C)c1cc(NC(=O)Nc2ccc(-c3cn(C4CCCC4)c4ncnc(N)c34)cc2)no1`, the negative-log IC50 (pIC50) in experiment [1] is 7.49; with RS4-11 it was under 6.00; in the experiment with HL-60, under 6.00; in the experiment on MV4-11, 8.67; in the experiment with MOLM-13, 8.82; in the experiment on BaF3 [2], 8.14. The results for the pIC50 with BaF3 [3] and with BaF3 [4] were 7.04 and 7.43, respectively.

Consider `CN(C)CCn1cc(-c2ccc(NC(=O)Nc3cc(C(C)(C)C)on3)cc2)c2c(N)ncnc21`, for which the negative-log IC50 (pIC50) in experiment [1] is 7.77; with RS4-11, under 6.00; in the experiment on HL-60 it was under 6.00; in the experiment with MV4-11, 9.82; in the experiment with MOLM-13 it was 9.87; in the experiment on BaF3 [2], 8.79. The pIC50 in the experiment on BaF3 [3] is 7.07; in the experiment on BaF3 [4] it was 6.77.

Turning to `C=CCCn1cc(-c2ccc(NC(=O)Nc3cc(C(C)(C)C)on3)c(F)c2)c2c(N)ncnc21`, the pIC50 in experiment [1] is 7.29; in the experiment with RS4-11, under 6.00; in the experiment on HL-60, under 6.00; in the experiment on MV4-11, 8.49; in the experiment with MOLM-13, 8.84; in the experiment on BaF3 [2], 8.27. For the same molecule, the pIC50 was 7.30 in the experiment on BaF3 [3] and 7.07 in the experiment on BaF3 [4].

On to `CCn1cc(-c2ccc(NC(=O)Nc3cc(C(C)(C)C)on3)cc2)c2c(N)ncnc21`, for which the pIC50 in experiment [1] is 8.15; in the experiment with RS4-11 it was under 6.00; in the experiment on HL-60 it was under 6.00; in the experiment on MV4-11, 9.32; in the experiment with MOLM-13, 9.84; in the experiment on BaF3 [2] it was 9.04. Also, the pIC50 with BaF3 [3] is 7.54; in the experiment on BaF3 [4], 7.64.

As to `CCOCCn1cc(-c2ccc(NC(=O)Nc3cc(C(C)(C)C)on3)c(F)c2)c2c(N)ncnc21`, the negative-log IC50 (pIC50) in experiment [1] is 7.31; in the experiment on RS4-11, under 6.00; with HL-60, under 6.00; with MV4-11 it was 8.87; in the experiment on MOLM-13 it was 8.81; with BaF3 [2] it was 8.34. The pIC50 was 7.37 in the experiment on BaF3 [3] and 7.26 in the experiment on BaF3 [4].

As to `CC#CCn1cc(-c2ccc(NC(=O)Nc3cc(C(C)(C)C)on3)cc2)c2c(N)ncnc21`, the negative logarithm of the IC50 (pIC50) in experiment [1] was 7.59; with RS4-11, under 6.00; in the experiment on HL-60 it was under 6.00; with MV4-11 it was 8.41; in the experiment with MOLM-13, 8.94; with BaF3 [2], 8.21. Also, the negative logarithm of the IC50 (pIC50) in the experiment on BaF3 [3] was 7.29; with BaF3 [4], 7.06.

As to `CCCn1cc(-c2ccc(NC(=O)Nc3cc(C(C)(C)C)on3)cc2)c2c(N)ncnc21`, the negative-log IC50 (pIC50) in experiment [1] was 7.82; in the experiment on RS4-11, under 6.00; in the experiment with HL-60, under 6.00; with MV4-11, 9.39; with MOLM-13, 9.13; in the experiment on BaF3 [2], 8.57. Further, the pIC50 with BaF3 [3] is 7.14; with BaF3 [4], 7.38.

As for `COCCn1cc(-c2ccc(NC(=O)Nc3cc(C(C)(C)C)on3)cc2)c2c(N)ncnc21`, the pIC50 was 7.68 in experiment [1]; under 6.00 in the experiment on RS4-11; under 6.00 in the experiment on HL-60; 9.83 in the experiment with MV4-11; 10.31 in the experiment with MOLM-13; 9.02 with BaF3 [2]. For the same molecule, the figures for the negative-log IC50 (pIC50) in the experiment with BaF3 [3] and in the experiment on BaF3 [4] were 7.54 and 7.30, respectively.

For the molecule `C=C(C)Cn1cc(-c2ccc(NC(=O)Nc3cc(C(C)(C)C)on3)cc2)c2c(N)ncnc21`, the pIC50 in experiment [1] was 7.52; in the experiment on RS4-11 it was under 6.00; with HL-60, under 6.00; in the experiment on MV4-11 it was 8.76; with MOLM-13, 8.99; in the experiment with BaF3 [2], 8.29. Also, the negative-log IC50 (pIC50) in the experiment with BaF3 [3] is 7.24; in the experiment on BaF3 [4], 7.03.

Regarding `CC(C)(C)OC(=O)N1CCN(CCn2cc(-c3ccc(NC(=O)Nc4cc(C(C)(C)C)on4)cc3)c3c(N)ncnc32)CC1`, the negative logarithm of the IC50 (pIC50) in the experiment with RS4-11 was under 6.00; in the experiment on HL-60, under 6.00; with MV4-11, 8.60; in the experiment with MOLM-13, 8.35; in the experiment with BaF3 [2] it was 8.05; in the experiment with BaF3 [3], under 6.30. The pIC50 with BaF3 [4] was 6.41.

For the molecule `CC(C)(C)c1cc(NC(=O)Nc2ccc(-c3cn(CCN4CCN(S(C)(=O)=O)CC4)c4ncnc(N)c34)cc2)no1`, the pIC50 in experiment [1] is 7.59; in the experiment with RS4-11, under 6.00; with HL-60, under 6.00; in the experiment with MV4-11, 7.85; in the experiment on MOLM-13, 7.97; with BaF3 [2] it was 8.44. Further, the values for the pIC50 with BaF3 [3] and in the experiment on BaF3 [4] were 7.07 and 6.78, respectively.

In the case of `CC(C)(C)c1cc(NC(=O)Nc2ccc(-c3cn(CCC#N)c4ncnc(N)c34)cc2)no1`, the pIC50 is 8.22 in experiment [1]; under 6.00 with RS4-11; under 6.00 in the experiment with HL-60; 9.42 in the experiment on MV4-11; 9.28 with MOLM-13; 8.80 in the experiment with BaF3 [2]. Further, the values for the pIC50 in the experiment with BaF3 [3] and in the experiment with BaF3 [4] were 7.71 and 7.61, respectively.

Regarding `CC(C)(C)c1cc(NC(=O)Nc2ccc(-c3cn(Cc4ccccc4)c4ncnc(N)c34)cc2)no1`, the negative logarithm of the IC50 (pIC50) in experiment [1] was 7.07; with RS4-11, under 6.00; with HL-60, under 6.00; with MV4-11, 8.76; in the experiment on MOLM-13, 8.60; in the experiment with BaF3 [2], 8.07. Besides, the results for the pIC50 in the experiment with BaF3 [3] and with BaF3 [4] were 6.87 and 7.02, respectively.

With `CCCCn1cc(-c2ccc(NC(=O)Nc3cc(C(C)(C)C)on3)cc2)c2c(N)ncnc21`, the negative-log IC50 (pIC50) in experiment [1] was 7.47; with RS4-11, under 6.00; with HL-60 it was under 6.00; in the experiment on MV4-11 it was 8.66; in the experiment on MOLM-13 it was 8.85; in the experiment with BaF3 [2], 8.24. The pIC50 in the experiment on BaF3 [3] is 6.68; with BaF3 [4], 6.95.

For `CCCCCCn1cc(-c2ccc(NC(=O)Nc3cc(C(C)(C)C)on3)cc2)c2c(N)ncnc21`, the pIC50 was 6.98 in experiment [1]; under 6.00 in the experiment with RS4-11; under 6.00 with HL-60; 8.29 in the experiment on MV4-11; 8.42 in the experiment on MOLM-13; 7.68 in the experiment on BaF3 [2]. Further, the pIC50 in the experiment with BaF3 [3] is 6.60; in the experiment on BaF3 [4], 6.73.

`Cn1cc(-c2ccc(NC(=O)Nc3cc(C(C)(C)C)on3)cc2)c2c(N)ncnc21`: the negative-log IC50 (pIC50) was 8.15 in experiment [1]; under 6.00 in the experiment with RS4-11; under 6.00 in the experiment on HL-60; 9.51 in the experiment on MV4-11; 10.85 in the experiment on MOLM-13; 8.84 in the experiment on BaF3 [2]. Besides, the pIC50 with BaF3 [3] is 7.55; with BaF3 [4], 7.33.
